Measured values as given in article PMC5617771 (Bioorganic & medicinal chemistry, 2017).

Experiments:
HIV-1 LAI = assay: Antiviral activity in MT-2 cells exposed to HIV-1 LAI; type: cell-based; conditions: for fold improvement in antiviral assay with respect to 3b: relative to 3b
HIV-1 protease = HIV-1 protease (Human immunodeficiency virus type 1 group M subtype B, UniProt P04585); assay: HIV-1 protease enzyme inhibition; type: biochemical

COc1ccc(S(=O)(=O)N(CC(C)C)C[C@@H](O)[C@H](Cc2ccccc2)NC(=O)c2cccc(C(=O)N3CCC[C@@H]3c3nc(C)co3)c2)cc1 [Inhibitor 4h, N-((2S,3R)-3-hydroxy-4-((N-isobutyl-4-methoxyphenyl)sulfonamido)-1-phenylbutan-2-yl)-3-((R)-2-(4-methyloxazol-2-yl)pyrrolidine-1-carbonyl)benzamide]
fold improved antiviral profile with respect to 4g (HIV-1 LAI; relative to 4g): 10 fold

COc1ccc(S(=O)(=O)N(CC(C)C)C[C@@H](O)[C@H](Cc2ccccc2)NC(=O)c2cccc(C(=O)N(C)Cc3coc(C)n3)c2)cc1 [Inhibitor 3c, N^1-((2S,3R)-3-hydroxy-4-((N-isobutyl-4-methoxyphenyl)sulfonamido)-1-phenylbutan-2-yl)-N^3-methyl-N^3-((2-methyloxazol-4-yl)methyl)isophthalamide]
fold improvement in antiviral assay with respect to 3b (HIV-1 LAI): over 20 fold

COc1ccc(S(=O)(=O)N(CC(C)C)C[C@@H](O)[C@H](Cc2ccccc2)NC(=O)c2cccc(C(=O)N3CCC[C@@H]3c3nc(C)cs3)c2)cc1 [Inhibitor 4b, N-((2S,3R)-3-hydroxy-4-((N-isobutyl-4-methoxyphenyl)sulfonamido)-1-phenylbutan-2-yl)-3-((R)-2-(4-methylthiazol-2-yl)pyrrolidine-1-carbonyl)benzamide]
fold improved potency over (S) counterpart 4a (HIV-1 protease; relative to 4a): over 100 fold

COc1ccc(S(=O)(=O)N(CC(C)C)C[C@@H](O)[C@H](Cc2ccccc2)NC(=O)c2cc(O)cc(C(=O)N(C)Cc3nc(C)oc3C)c2)cc1 [Inhibitor 3f, N^1-((2,5-dimethyloxazol-4-yl)methyl)-5-hydroxy-N^3-((2S,3R)-3-hydroxy-4-((N-isobutyl-4-methoxyphenyl)sulfonamido)-1-phenylbutan-2-yl)-N^1-methylisophthalamide]
fold protease inhibitory potency over methylamino analogue 3e (HIV-1 protease; relative to 3e): 10 fold

COc1ccc(S(=O)(=O)N(CC(C)C)C[C@@H](O)[C@H](Cc2ccccc2)NC(=O)c2cccc(C(=O)N(C)Cc3csc(C)n3)c2)cc1 [Inhibitor 3d, N^1-((2S,3R)-3-hydroxy-4-((N-isobutyl-4-methoxyphenyl)sulfonamido)-1-phenylbutan-2-yl)-N^3-methyl-N^3-((2-methylthiazol-4-yl)methyl)isophthalamide]
fold enhanced protease inhibitory activity over 3c (HIV-1 protease; relative to 3c): 5 fold | fold improvement in antiviral assay with respect to 3b (HIV-1 LAI): over 20 fold
